Experimental data as given in US20030108462A1, “Method of extracting contaminants from solid matter” (priority 2001, published 2003).
“And” between values parts separate entries of the source, which are not always exact repeats. Equal values may be shown once.

Columns and labels:
[1] = Chelating-agent leaching of comminuted CCA treated wood, arsenic; details: weight basis, before being adjusted for moisture content
Method: (§1) 32 grams of the comminuted treated wood was used to represent 1 mole of the contaminants, and was reacted with 1000 ml of 0.1 mole ethylenediamine-N,N,N′,N′-tetraacetic acid at a temperature of 70° C. for a period of 6 hours. The sample was agitated and allowed to settle periodically to thoroughly mix the wood and the solution, as well as to facilitate leaching. After the last settling period, the mixture stratified into a green colored supernatant which contained the chelated CCA components in soluble form at the top, and clean looking sawdust at the bottom of the reaction container.
(§2) Upon completion of reaction, the supernatant was decanted and retained. The solid section was allowed to drain freely for 15 minutes, after which 500 ml of fresh water was added and the mixture was periodically mixed and allowed to settle for a period of 30 minutes. Similarly, the mixture stratified into a light green solution and cleaner looking saw dust. The liquid was decanted and added to the previously decanted liquid. The settled solids were wrapped in a 250μ filter paper and subjected to a weight of 6 pounds per square inch and allowed to drain. Upon completion, the drained liquid was added to the previously decanted liquids and sent for laboratory analysis. The retained solids were oven dried and analyzed for the target contaminants.
(§3) 100 grams of the comminuted treated wood was used to represent 1 mole of the contaminants and reacted with 1000 mL of 0.1 mole EDTA disodium solution at 30° C. for 30 hours. […]
(§4) Upon completion of reaction, the supernatant was decanted and retained. […] The retained solids were oven dried and analyzed for the target contaminants. […]
(§5) Upon completion of reaction, the supernatant was decanted and retained The solid section was allowed to drain freely for 15 minutes, after which 500 ml of fresh water with a known quality was added and the mixture was periodically mixed and allowed to settle for a period of 30 minutes. […] The retained solids were oven dried and analyzed for the target contaminants.

[2] = Chelating-agent leaching of comminuted CCA treated wood, copper; details: weight basis, before being adjusted for moisture content
Method: as §1, §2, §3, §4, §5

[3] = Chelating-agent leaching of comminuted CCA treated wood, chromium; details: weight basis, before being adjusted for moisture content
Method: as §1, §2, §3, §4, §5

[4] = at 25° C.; cited from earlier work

O=C([O-])CN(CCN(CC(=O)[O-])CC(=O)O)CC(=O)O.[Na+].[Na+] [EXAMPLE 2, EDTA disodium]
Percent Removal, Arsenic [1]: 96.36%
Percent Removal, Copper [2]: 98.35%
Percent Removal, Chromium [3]: 90.86%

O=C(O)CN(CCN(CC(=O)O)CC(=O)O)CCN(CC(=O)O)CC(=O)O [Diethylenetriamine-N,N,N′,N″,N′-pentaacetic Acid]
Solubility [4]: 0.46 g/l00 mL at 25 °C

O=C(O)CN(CCN(CC(=O)O)CC(=O)O)CC(=O)O [EXAMPLE 3, EDTA Free Acid]
Percent Removal, Arsenic [1]: 96.09%
Percent Removal, Copper [2]: 99.75%
Percent Removal, Chromium [3]: 90.09% and 90.89%

O=C(O)CN(CCN(CC(=O)O)CC(=O)O)CC(=O)O [EXAMPLE 1, ethylenediamine-N,N,N′,N′-tetraacetic acid]
Percent Removal, Arsenic [1]: 93.28%
Percent Removal, Copper [2]: 95.54%
Percent Removal, Chromium [3]: 84.47%
